# Measurements as given in paper PMC5761851, “Application of a phenotypic drug discovery strategy to identify biological and chemical starting points for inhibition of TSLP production in lung epithelial cells” (PLoS ONE, 2018).
# “And” between values parts separate entries of the source, which are not always exact repeats. Identical values can stand only once. Like-named read-outs stand apart in the source and are kept apart here.
# Tests used:
# IKKε = target: T1, IKKε (Homo sapiens, UniProt Q14164); test: kinase selectivity panel; assay type: biochemical; conditions: read-out: percentage of control activity (POC), IKKε
# T1 construct: purchased Eurofins Pharma Discovery Services (KinaseProfiler; Cerep BioPrint panel)
# T1 sequence (Q14164 1-716): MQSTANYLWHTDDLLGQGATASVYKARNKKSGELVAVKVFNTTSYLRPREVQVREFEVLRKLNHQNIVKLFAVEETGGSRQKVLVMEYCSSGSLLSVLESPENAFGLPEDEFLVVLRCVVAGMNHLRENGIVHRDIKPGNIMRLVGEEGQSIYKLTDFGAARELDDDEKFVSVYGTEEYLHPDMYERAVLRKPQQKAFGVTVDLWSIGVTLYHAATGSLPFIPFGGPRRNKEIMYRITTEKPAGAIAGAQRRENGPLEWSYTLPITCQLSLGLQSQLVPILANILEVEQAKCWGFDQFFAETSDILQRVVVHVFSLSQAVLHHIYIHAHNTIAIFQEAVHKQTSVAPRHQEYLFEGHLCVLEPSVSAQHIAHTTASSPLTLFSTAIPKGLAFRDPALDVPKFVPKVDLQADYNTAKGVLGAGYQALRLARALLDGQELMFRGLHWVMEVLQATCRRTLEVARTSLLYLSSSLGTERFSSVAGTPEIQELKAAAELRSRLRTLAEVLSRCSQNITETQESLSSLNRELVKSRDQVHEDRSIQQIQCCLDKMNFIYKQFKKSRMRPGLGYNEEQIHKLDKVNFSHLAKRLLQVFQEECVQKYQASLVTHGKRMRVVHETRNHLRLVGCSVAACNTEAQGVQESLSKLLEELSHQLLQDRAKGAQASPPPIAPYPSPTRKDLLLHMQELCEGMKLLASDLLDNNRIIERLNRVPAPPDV
# In short: (§1)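 IC50 values derive from 9 duplicate concentrations, run only for activities picked after an initial 10 μM duplicate screen across 125 representative kinases.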
# EGFR = target: T2, EGFR (Homo sapiens, UniProt P00533); test: kinase selectivity panel; assay type: biochemical; conditions: read-out: percentage of control activity (POC), EGFR
# T2 construct: purchased Eurofins Pharma Discovery Services (KinaseProfiler; Cerep BioPrint panel)
# T2 sequence (P00533 25-1210): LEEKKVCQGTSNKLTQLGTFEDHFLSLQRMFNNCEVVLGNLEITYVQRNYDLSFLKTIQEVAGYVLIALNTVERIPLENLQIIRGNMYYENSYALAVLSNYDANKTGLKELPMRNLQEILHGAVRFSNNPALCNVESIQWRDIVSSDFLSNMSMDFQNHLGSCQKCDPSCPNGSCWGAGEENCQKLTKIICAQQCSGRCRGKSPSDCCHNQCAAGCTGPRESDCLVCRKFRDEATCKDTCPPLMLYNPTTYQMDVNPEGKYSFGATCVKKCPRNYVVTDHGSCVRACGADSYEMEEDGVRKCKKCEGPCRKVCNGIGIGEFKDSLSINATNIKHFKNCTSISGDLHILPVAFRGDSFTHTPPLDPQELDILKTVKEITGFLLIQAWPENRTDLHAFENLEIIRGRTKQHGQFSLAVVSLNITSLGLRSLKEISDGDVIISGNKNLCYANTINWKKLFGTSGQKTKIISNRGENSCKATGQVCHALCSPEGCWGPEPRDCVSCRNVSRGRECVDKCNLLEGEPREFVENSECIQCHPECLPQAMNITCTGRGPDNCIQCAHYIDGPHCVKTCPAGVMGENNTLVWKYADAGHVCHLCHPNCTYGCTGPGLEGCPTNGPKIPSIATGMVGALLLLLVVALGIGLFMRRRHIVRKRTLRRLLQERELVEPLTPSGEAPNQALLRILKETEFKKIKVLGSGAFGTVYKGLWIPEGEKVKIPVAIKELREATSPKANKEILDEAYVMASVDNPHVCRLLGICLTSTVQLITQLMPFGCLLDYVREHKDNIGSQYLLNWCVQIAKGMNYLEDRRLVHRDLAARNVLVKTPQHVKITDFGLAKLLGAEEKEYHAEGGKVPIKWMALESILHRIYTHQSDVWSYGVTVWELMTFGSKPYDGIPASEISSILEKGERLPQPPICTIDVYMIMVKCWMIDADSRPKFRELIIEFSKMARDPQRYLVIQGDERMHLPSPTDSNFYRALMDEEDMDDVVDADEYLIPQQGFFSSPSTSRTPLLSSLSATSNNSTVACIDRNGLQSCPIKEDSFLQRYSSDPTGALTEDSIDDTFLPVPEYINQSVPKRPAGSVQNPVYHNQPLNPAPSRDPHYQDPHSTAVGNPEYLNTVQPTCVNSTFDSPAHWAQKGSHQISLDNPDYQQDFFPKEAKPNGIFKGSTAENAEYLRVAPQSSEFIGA
# In short: as §1
# [1] = system: 125 representative kinases; test: 125 kinase selectivity panel (overall); assay type: biochemical; conditions: 10 μM
# Experimental: Kinase selectivity was evaluated at Eurofins Pharma Discovery Services using a selection of 125 representative kinases tested at a concentration of 10 μM in duplicate (S3 Table). IC50 values for selected activities were further characterized at 9 duplicate concentrations. DNA-PK activity was determined at the SelectScreen® Biochemical kinase Profiling Service of Thermo Fisher Scientific.
# [2] = system: TSLP production in NHBE cells; test: TSLP HTRF assay (TSLP production in poly I:C / IL-4 stimulated NHBE cells); assay type: cell-based, human
# Experimental: For dose response curves determinations, stocks of test compounds at a concentration of 1.33x10^-3 M in DMSO were sequentially diluted at 1:4 dilution steps before further 1/50 dilution in BEBM medium containing 1x ITS and 0.1% BSA. For the highest 4 μM concentration test compounds were resuspended in DMSO at a concentration of 2.5x10^-3 M and diluted 1/25 in BEBM medium containing 1x ITS and 0.1% BSA before adding 1 μl to the wells containing the cells.
# All subsequent steps were automated using a Sciclone® G3 workstation (Perkin Elmer) with a Twister™ II robot (Perkin Elmer). […] 1 μl of test compound solution prepared at 25x concentration was added to the wells containing NHBE cells. The plates were then incubated during 90 minutes at 37°C, 5% CO2, 90% humidity before adding poly I:C (Invivogen HMW Tirl-pic-5) and human IL-4 (Peprotech 200–04) stimulus in 4 μl of BEBM medium containing 1x ITS, 0.1% BSA and 0.1% DMSO using a Multidrop™. […] Cells were then incubated for 24h in the presence of test compounds and stimulus at 37°C, 5% CO2 and 90% humidity conditions. After the 24h incubation period the plates were transferred to a CyBi®-Well platform (CyBio AG) to collect 10 μl of the supernatants which were transferred to a new plate. TSLP levels in the supernatant were determined using a homogeneous Time-Resolved Fluorescence (HTRF) assay custom developed by Cisbio. The assay was based in the use of a donor dye (europium cryptate) coupled to a monoclonal anti-TSLP antibody and an acceptor dye (d2) coupled to a second polyclonal anti-TSLP antibody. […] 10 μl of the resulting solution was then used to determine TSLP levels as described above.
# The standard curve was built with eight points prepared in ITS/BSA in BEBM medium without supplements, starting at 700 pg/ml and diluted 1:2, with medium alone being zero TSLP. Fitting model corresponded to equation 100 of Excel fit software. Data from the primary phenotypic screen was visualized using Vortex (Dotmatics). […] For compound selection the maximum inhibition of the two individual duplicate values was taken into account. Dose response confirmation was performed at single point in the 2 donors tested. 9 point curves were run starting at 4 μM concentration by doing serial 1:4 dilutions in cells derived from both donors.
# [3] = system: Production of TNFα in THP-1 cells; test: p38-dependent TNF production in THP-1 cells; assay type: cell-based
# [4] = system: TSLP mRNA levels in NHBE cells; test: TSLP mRNA real-time PCR (qPCR) in NHBE cells; assay type: cell-based, human; set-up: TSLP mRNA upregulation (% versus control) / % Inhibition of mRNA: dose or concentration left out as unconfirmed; conditions: for % Inhibition of mRNA at [4 μM] ± SD: NHBE donor #1, 6 h stimulation; for % Inhibition of mRNA: individual values, donor #1
# IRK (InsR) = target: T3, IRK (InsR) (Homo sapiens, UniProt P06213); test: BioPrint panel: IRK (h) (InsR); assay type: biochemical; conditions: 1 micromolar, read-out: percentage of inhibition of activity
# T3 construct: purchased Eurofins Pharma Discovery Services (KinaseProfiler; Cerep BioPrint panel)
# T3 sequence (P06213 28-1382): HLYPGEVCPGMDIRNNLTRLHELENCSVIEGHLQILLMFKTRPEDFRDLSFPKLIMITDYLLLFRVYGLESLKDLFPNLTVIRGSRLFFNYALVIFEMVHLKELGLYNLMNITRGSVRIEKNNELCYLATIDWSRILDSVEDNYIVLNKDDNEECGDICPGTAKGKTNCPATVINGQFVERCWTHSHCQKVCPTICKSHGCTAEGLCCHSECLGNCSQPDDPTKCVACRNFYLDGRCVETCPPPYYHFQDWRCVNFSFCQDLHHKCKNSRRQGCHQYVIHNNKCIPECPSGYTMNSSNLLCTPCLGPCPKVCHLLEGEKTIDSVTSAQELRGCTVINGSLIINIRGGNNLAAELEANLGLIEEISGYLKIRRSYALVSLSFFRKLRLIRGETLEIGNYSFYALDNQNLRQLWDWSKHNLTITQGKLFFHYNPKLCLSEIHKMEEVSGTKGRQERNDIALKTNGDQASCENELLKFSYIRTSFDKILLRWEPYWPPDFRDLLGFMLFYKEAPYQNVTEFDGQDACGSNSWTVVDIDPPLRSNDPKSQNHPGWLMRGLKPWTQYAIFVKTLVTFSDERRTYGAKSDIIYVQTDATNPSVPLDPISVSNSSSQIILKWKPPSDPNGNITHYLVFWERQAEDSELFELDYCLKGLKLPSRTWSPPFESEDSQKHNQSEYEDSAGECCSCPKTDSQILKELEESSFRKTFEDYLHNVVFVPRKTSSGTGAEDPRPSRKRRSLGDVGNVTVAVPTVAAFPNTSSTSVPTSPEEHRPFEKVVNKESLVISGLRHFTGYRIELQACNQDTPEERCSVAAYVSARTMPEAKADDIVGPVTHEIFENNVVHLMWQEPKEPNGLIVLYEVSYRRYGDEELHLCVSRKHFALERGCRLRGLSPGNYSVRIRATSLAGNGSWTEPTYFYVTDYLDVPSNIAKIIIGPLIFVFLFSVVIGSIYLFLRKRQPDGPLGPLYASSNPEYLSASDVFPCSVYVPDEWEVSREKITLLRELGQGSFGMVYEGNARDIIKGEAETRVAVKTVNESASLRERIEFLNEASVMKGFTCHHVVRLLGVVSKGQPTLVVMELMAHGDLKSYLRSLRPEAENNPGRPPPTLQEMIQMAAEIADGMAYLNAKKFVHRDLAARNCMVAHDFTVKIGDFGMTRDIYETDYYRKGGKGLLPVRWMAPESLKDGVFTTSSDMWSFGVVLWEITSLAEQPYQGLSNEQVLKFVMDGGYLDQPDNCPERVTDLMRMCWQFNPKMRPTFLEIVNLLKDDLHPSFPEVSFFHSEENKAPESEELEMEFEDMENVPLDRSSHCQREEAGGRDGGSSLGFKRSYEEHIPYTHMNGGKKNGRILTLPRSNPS
# Source text: (§2) Supplement pone.0189247.s004.xlsx, sheet "Bioprint Selectivity Panel" | column: %
# GABA transporter = test: BioPrint panel: GABA transporter (antagonist); assay type: binding; conditions: 1 micromolar
# Source text: as §2
# [5] = Homo sapiens, NHBE, 24 h, NHBE cells donor #1, poly I:C / IL-4, 24h, geometric mean, read-out: Inhibition of TSLP protein production (IC50, μM) (95% CI)
# [6] = individual values, donor #1, read-out: Inhibition of TSLP production in NHBE (IC50)
# [7] = Homo sapiens, THP-1, geometric mean, read-out: Activity in reference cell based assay (IC50, μM) (95% CI) Production of TNFα in THP-1 cells
# [8] = Homo sapiens, THP-1, individual values, read-out: Cellular activity (IC50, mM) TNFa production in THP-1
remaining activity at 10 µM (IKKε),remaining activity at 10 µM (EGFR),inhibition in the rest of the panel [1],"IC50 [2, 5]","IC50 [2, 6]","IC50 [3, 7]","IC50 [3, 8]","IC50 ([2]; Homo sapiens, NHBE, individual values, donor #1, read-out: Inhibition of TSLP production in NHBE (IC50))","IC50 ([3]; individual values, read-out: Cellular activity (IC50, mM) TNFa production in THP-1)",Compound,% Inhibition of mRNA at [4 μM] ± SD [4],% Inhibition of mRNA [4],inhibition at 1 µM (IRK (InsR)),percentage of inhibition of activity (GABA transporter)
101%,96%,less than 50%,0.022 µM,0.023 µM and 0.009 µM and 0.055 µM,0.0004 µM,0.00045 µM,–,–,CC(C)(C)N1CCC(c2cc(-c3ccc(F)cc3Cl)c3cc[n+]([O-])c(-c4c(Cl)cccc4Cl)c3n2)CC1 [compound 2],79.69 ± 4.76%,83.056% and 76.316%,–,–
102%,91%,less than 50%,0.172 µM,0.211 µM and 0.131 µM,0.001 µM,0.00242 µM,0.186 µM,0.00132 µM,Cc1ccc(C(=O)NCC2CC2)cc1-c1ccc2c(c1)NC(=O)C21CCCC1 [compound 3],80.07 ± 0.48%,80.414% and 79.735%,–,–
100%,104%,–,0.738 µM,0.486 µM and 0.72 µM and 1.15 µM,0.002 µM,0.002 µM,–,–,"COc1c(NC(=O)c2ccc(C)c(-c3nnc4c(NCC(C)(C)C)nccn34)c2)cc(C(C)(C)C)cc1NS(C)(=O)=O [compound 7, reference compound]",–,–,–,–

Compound,remaining activity at 10 µM (IKKε),remaining activity at 10 µM (EGFR),inhibition in the rest of the panel [1],"IC50 [2, 5]","IC50 [2, 6]","IC50 [3, 7]","IC50 [3, 8]","IC50 ([2]; Homo sapiens, NHBE, individual values, donor #1, read-out: Inhibition of TSLP production in NHBE (IC50))","IC50 ([3]; individual values, read-out: Cellular activity (IC50, mM) TNFa production in THP-1)",% Inhibition of mRNA at [4 μM] ± SD [4],% Inhibition of mRNA [4],inhibition at 1 µM (IRK (InsR)),percentage of inhibition of activity (GABA transporter)
Cn1cc(-c2cccc(-c3nc(C(=O)NC4C5CC6CC4CC(O)(C6)C5)c(N)nc3N)c2)cn1 (stereo not shown) [compound 4],96%,95%,–,0.075 µM,0.052 µM and 0.037 µM and 0.178 µM and 0.1 µM and 0.036 µM and 0.147 µM,–,–,–,–,90.44 ± 0.24%,90.608% and 90.263%,5%,1.1%
CS(=O)(=O)N1CCN(c2ccc(Nc3ncc(C(N)=O)c(NC4CC4)n3)cc2)CC1 [compound 5],0%,87%,–,0.043 µM,0.026 µM and 0.048 µM and 0.028 µM and 0.054 µM and 0.083 µM,–,–,–,–,99.76 ± 0.12%,99.853% and 99.672%,–,–
